Reference: PMC3119665, “A New Drug Design Targeting the Adenosinergic System for Huntington's Disease” (PLoS ONE, 2011)

How the values were obtained:
A2A adenosine receptor = molecular target: T1, A2A adenosine receptor (Homo sapiens, UniProt P29274); assay: Radioligand binding assay
T1 construct: host or cells: HEK293

Adrenergic α 2A = molecular target: T2, Adrenergic α 2A (Homo sapiens, UniProt P08913); assay: Radioligand binding panel (Table S1); conditions: 10 μM T1-11, n 2
T2 construct: purchased MDS Pharma Services Taiwan

Bombesin, Non-Selective = assay: Radioligand binding panel (Table S1); design: species or system rat; conditions: 10 μM T1-11, n 2
[1] = test system: Calcium Channel L-Type, Dihydropyridine; assay: Radioligand binding panel (Table S1); design: species or system rat; conditions: 10 μM T1-11, n 2
Cannabinoid CB1 = molecular target: T3, Cannabinoid CB1 (Homo sapiens, UniProt P21554); assay: Radioligand binding panel (Table S1); conditions: 10 μM T1-11, n 2
T3 construct: purchased MDS Pharma Services Taiwan

[2] = molecular target: T4, Cholecystokinin CCK. (CCKA) (Homo sapiens, UniProt P32238); assay: Radioligand binding panel (Table S1); conditions: 10 μM T1-11, n 2
T4 construct: purchased MDS Pharma Services Taiwan
T4 sequence (P32238 whole entry): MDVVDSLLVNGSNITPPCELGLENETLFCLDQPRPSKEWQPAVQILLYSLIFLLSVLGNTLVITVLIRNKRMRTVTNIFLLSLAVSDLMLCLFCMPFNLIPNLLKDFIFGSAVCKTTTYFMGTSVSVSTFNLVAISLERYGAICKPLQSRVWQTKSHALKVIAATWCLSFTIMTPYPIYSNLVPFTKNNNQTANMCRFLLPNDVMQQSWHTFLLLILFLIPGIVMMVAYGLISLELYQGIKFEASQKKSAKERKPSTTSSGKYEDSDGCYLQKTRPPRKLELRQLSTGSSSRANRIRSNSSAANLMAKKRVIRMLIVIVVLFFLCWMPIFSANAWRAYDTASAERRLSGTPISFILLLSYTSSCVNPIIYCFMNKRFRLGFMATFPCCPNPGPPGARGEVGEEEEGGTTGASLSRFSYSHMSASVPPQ

Dopamine D4.7 = molecular target: T5, Dopamine D4.7 (Homo sapiens, UniProt P21917, INS283GLPPDPCGPDCAPPAPGLPQDPCGPDCAPPAPGLPRGPCGPDCAPPAP/S284G); assay: Radioligand binding panel (Table S1); conditions: 10 μM T1-11, n 2
T5 construct: purchased MDS Pharma Services Taiwan

Estrogen ERα = molecular target: T6, Estrogen ERα (Homo sapiens, UniProt P03372); assay: Radioligand binding panel (Table S1); conditions: 10 μM T1-11, n 2
T6 construct: purchased MDS Pharma Services Taiwan
T6 sequence (P03372 whole entry): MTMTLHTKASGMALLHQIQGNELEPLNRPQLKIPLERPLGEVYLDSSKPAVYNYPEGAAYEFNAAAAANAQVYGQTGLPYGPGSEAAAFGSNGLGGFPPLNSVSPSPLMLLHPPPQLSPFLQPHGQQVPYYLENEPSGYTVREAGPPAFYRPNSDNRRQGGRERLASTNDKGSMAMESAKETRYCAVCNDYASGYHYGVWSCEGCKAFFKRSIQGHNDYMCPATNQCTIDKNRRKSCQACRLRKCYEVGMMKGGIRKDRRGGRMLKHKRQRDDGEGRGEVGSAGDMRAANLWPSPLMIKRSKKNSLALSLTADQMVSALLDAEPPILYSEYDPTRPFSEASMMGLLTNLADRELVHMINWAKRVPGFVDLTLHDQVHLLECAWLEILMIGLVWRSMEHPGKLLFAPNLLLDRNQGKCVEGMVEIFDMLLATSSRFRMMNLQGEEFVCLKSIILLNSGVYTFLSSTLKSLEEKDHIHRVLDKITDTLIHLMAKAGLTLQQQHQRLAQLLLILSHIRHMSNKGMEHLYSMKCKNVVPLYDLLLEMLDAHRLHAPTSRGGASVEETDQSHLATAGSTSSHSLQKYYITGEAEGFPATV

[3] = test system: GABAA, Benzodiazepine, Central, Flunitrazepam; assay: Radioligand binding panel (Table S1); design: species or system rat; conditions: 10 μM T1-11, n 2
GABAA, Non-Selective = assay: Radioligand binding panel (Table S1); design: species or system rat; conditions: 10 μM T1-11, n 2
Glutamate, NMDA, Glycine = Glutamate, NMDA, Glycine (Rattus norvegicus, UniProt P35439); assay: Radioligand binding panel (Table S1); conditions: 10 μM T1-11, n 2
Histamine H3 = molecular target: T7, Histamine H3 (Homo sapiens, UniProt Q9Y5N1); assay: Radioligand binding panel (Table S1); conditions: 10 μM T1-11, n 2
T7 construct: purchased MDS Pharma Services Taiwan

Interleukin IL-2 = molecular target: T8, Interleukin IL-2 (Mus musculus, UniProt P01590+P16297+P34902); assay: Radioligand binding panel (Table S1); conditions: 10 μM T1-11, n 2
T8 construct: purchased MDS Pharma Services Taiwan
T8 sequence (P01590 22-268): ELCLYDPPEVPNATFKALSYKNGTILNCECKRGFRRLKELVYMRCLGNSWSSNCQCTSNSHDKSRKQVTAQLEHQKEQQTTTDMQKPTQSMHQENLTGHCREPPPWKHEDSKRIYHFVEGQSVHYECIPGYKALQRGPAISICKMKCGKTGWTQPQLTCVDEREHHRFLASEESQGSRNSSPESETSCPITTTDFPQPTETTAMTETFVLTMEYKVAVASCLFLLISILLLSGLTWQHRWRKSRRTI
T8 sequence (P16297 27-539): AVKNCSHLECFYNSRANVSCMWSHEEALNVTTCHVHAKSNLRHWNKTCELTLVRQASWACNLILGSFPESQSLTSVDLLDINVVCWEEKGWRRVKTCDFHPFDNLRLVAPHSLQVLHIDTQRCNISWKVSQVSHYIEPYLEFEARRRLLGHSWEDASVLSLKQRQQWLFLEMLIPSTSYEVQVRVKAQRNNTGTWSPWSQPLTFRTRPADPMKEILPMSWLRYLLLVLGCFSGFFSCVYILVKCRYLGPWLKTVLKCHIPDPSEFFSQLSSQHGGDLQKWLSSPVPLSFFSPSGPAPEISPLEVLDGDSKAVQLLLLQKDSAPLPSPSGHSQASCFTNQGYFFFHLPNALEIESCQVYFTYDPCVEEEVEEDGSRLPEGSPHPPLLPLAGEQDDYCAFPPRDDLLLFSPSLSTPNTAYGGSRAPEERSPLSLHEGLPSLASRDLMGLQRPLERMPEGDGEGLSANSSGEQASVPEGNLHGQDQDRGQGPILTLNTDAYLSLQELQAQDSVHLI
T8 sequence (P34902 23-369): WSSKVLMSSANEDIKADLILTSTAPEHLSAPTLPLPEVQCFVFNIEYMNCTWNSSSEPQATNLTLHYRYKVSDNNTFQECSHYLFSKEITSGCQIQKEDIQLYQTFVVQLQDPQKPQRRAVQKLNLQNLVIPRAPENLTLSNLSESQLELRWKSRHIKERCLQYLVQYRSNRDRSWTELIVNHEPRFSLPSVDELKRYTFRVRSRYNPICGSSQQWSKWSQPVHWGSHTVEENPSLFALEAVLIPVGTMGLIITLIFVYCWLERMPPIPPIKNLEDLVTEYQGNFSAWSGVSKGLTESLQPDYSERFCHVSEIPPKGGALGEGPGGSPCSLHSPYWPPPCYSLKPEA

Interleukin IL-6 = molecular target: T9, Interleukin IL-6 (Homo sapiens, UniProt P08887); assay: Radioligand binding panel (Table S1); conditions: 10 μM T1-11, n 2
T9 construct: purchased MDS Pharma Services Taiwan

Melanocortin MC3 = molecular target: T10, Melanocortin MC3 (Homo sapiens, UniProt P41968); assay: Radioligand binding panel (Table S1); conditions: 10 μM T1-11, n 2
T10 construct: purchased MDS Pharma Services Taiwan
T10 sequence (P41968 whole entry): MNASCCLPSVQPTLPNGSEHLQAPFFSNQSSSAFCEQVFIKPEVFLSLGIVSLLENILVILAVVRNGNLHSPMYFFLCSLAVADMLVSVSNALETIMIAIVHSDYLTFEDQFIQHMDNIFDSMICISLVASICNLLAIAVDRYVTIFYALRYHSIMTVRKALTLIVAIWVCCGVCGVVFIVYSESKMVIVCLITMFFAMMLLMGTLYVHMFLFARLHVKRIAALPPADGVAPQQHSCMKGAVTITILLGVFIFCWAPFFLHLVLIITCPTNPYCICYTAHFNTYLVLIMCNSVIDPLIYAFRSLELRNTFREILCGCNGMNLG

Neuropeptide Y Y1 = molecular target: T11, Neuropeptide Y Y1 (Homo sapiens, UniProt P25929); assay: Radioligand binding panel (Table S1); conditions: 10 μM T1-11, n 2
T11 construct: purchased MDS Pharma Services Taiwan
T11 sequence (P25929 whole entry): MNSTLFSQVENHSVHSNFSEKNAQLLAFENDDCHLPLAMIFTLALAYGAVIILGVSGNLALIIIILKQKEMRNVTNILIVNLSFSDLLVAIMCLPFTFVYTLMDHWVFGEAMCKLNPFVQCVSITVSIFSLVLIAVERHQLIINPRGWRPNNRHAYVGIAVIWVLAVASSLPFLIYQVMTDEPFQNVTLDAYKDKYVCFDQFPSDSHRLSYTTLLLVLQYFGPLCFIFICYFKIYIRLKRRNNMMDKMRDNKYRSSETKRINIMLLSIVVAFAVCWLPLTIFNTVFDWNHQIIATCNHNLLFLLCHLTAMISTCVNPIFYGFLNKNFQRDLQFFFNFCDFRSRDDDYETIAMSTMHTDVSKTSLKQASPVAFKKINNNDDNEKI

Opiate κ (OP2, KOP) = molecular target: T12, Opiate κ (OP2, KOP) (Homo sapiens, UniProt P41145); assay: Radioligand binding panel (Table S1); conditions: 10 μM T1-11, n 2
T12 construct: purchased MDS Pharma Services Taiwan
T12 sequence (P41145 whole entry): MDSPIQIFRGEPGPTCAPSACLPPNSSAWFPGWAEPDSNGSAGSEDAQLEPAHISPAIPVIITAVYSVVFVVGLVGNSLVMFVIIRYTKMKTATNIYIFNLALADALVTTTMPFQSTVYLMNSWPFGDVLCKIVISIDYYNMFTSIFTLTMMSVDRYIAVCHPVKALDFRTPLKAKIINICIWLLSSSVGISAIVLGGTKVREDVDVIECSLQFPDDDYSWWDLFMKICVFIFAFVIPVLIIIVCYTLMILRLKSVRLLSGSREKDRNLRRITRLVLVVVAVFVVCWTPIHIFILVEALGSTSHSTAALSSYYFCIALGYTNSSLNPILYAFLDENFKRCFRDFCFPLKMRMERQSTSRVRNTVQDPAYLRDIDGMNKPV

Phosphodiesterase PDE3 = molecular target: T13, Phosphodiesterase PDE3 (Homo sapiens, UniProt Q14432); assay: Radioligand binding panel (Table S1); conditions: 10 μM T1-11, n 2
T13 construct: purchased MDS Pharma Services Taiwan

Phosphodiesterase PDE6 = assay: Radioligand binding panel (Table S1); design: species or system human; conditions: 10 μM T1-11, n 2
[4] = test system: Platelet-Derived Growth Factor (PDGF); assay: Radioligand binding panel (Table S1); design: species or system mouse; conditions: 10 μM T1-11, n 2
Potassium Channel [KATP] = molecular target: T14, Potassium Channel [KATP] (Cricetus cricetus, UniProt Q09427); assay: Radioligand binding panel (Table S1); design: species or system hamster; conditions: 10 μM T1-11, n 2
T14 construct: purchased MDS Pharma Services Taiwan
Experimental: Radoligand binding assays were performed by MDS Pharma Services Taiwan (Taipei, Taiwan) using standard binding protocols. For the binding assay of the A2AR [67], membrane proteins collected from HEK293 cells overexpressing the human A2AR were incubated in reaction buffer [50 mM Tris-HCl (pH 7.4), 10 mM MgCl2, 1 mM EDTA, and 2 U/mL adenosine deaminase] containing ^3H-CGS21680 (50 nM) for 90 min at 25°C. Nonspecific binding was assessed in the presence of 50 µM adenosine- 5′-N-ethylcarboxamide. […] Nonspecific binding was assessed in the presence of 1 µM IB-MECA (Tocris Bioscience, Ellisville, MS, USA).

Prostanoid DP = molecular target: T15, Prostanoid DP (Homo sapiens, UniProt Q13258); assay: Radioligand binding panel (Table S1); conditions: 10 μM T1-11, n 2
T15 construct: purchased MDS Pharma Services Taiwan
T15 sequence (Q13258 whole entry): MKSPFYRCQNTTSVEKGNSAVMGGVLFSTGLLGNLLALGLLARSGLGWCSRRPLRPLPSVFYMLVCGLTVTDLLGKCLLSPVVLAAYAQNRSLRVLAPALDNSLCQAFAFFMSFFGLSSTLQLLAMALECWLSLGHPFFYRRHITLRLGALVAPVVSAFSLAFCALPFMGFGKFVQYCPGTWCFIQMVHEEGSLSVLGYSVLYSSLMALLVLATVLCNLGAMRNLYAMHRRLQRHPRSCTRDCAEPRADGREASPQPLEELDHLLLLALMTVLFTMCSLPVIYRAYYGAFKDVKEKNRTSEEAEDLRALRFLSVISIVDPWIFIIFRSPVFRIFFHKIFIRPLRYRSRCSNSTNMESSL

[5] = molecular target: T16, Prostanoid, Thromboxane A2 (TP) (Homo sapiens, UniProt P21731); assay: Radioligand binding panel (Table S1); conditions: 10 μM T1-11, n 2
T16 construct: purchased MDS Pharma Services Taiwan
T16 sequence (P21731 whole entry): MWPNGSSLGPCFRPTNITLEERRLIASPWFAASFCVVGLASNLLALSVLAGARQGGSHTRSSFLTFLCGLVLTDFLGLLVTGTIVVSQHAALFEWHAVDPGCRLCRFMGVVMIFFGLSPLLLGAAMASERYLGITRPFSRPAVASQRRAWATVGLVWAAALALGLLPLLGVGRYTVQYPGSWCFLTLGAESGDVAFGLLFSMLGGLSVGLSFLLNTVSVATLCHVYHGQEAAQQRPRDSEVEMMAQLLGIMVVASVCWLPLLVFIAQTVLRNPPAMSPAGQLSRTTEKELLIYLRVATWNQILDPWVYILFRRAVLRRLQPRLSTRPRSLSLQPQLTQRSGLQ

Rolipram = assay: Radioligand binding panel (Table S1); design: species or system rat; conditions: 10 μM T1-11, n 2
[6] = test system: Serotonin (5-Hydroxytryptamine) 5-HT2, Non-Selective; assay: Radioligand binding panel (Table S1); design: species or system rat; conditions: 10 μM T1-11, n 2
Sigma σ2 = molecular target: T17, Sigma σ2 (Rattus norvegicus, UniProt Q5U3Y7); assay: Radioligand binding panel (Table S1); conditions: 10 μM T1-11, n 2
T17 construct: purchased MDS Pharma Services Taiwan
T17 sequence (Q5U3Y7 whole entry): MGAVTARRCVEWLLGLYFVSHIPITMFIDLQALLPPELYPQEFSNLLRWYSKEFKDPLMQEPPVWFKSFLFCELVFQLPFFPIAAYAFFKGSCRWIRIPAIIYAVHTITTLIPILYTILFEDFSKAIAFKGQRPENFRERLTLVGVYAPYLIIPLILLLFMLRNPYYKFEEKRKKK

Sodium Channel, Site 2 = assay: Radioligand binding panel (Table S1); design: species or system rat; conditions: 10 μM T1-11, n 2
Somatostatin sst5 = molecular target: T18, Somatostatin sst5 (Homo sapiens, UniProt P35346); assay: Radioligand binding panel (Table S1); conditions: 10 μM T1-11, n 2
T18 construct: purchased MDS Pharma Services Taiwan
T18 sequence (P35346 whole entry): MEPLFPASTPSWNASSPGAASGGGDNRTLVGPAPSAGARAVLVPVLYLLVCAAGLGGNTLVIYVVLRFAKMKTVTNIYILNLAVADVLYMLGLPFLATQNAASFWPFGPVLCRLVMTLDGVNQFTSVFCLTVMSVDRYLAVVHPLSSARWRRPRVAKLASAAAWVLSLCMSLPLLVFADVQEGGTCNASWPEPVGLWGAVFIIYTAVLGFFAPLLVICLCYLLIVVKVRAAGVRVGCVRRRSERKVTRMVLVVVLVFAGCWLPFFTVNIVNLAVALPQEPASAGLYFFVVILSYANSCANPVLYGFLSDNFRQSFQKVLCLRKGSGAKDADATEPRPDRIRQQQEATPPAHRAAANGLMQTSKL

PC12 cells = assay: Annexin V-FITC staining, serum-deprived PC12 cells; format: cell-based, rat; conditions: T1-11 10 µM, 24 h
Experimental: An annexin V (FITC-conjugated) apoptosis kit (K101-400; BioVision, Mountain View, CA, USA) was used to analyze apoptotic cells. The experimental protocol followed the manufacturer's instructions and a previous article. In brief, after treatment with serum, serum-free medium, or serum-free medium plus T1-11 of the indicated concentration for 24 h, cells growing on 12-well plates at (3∼4)×10^5 cells/well were loaded with 0.5 ml binding buffer and 5 µl annexin V-FITC. After incubation for 5 min in the dark, cells were washed once with 1 ml of culture medium (without phenol red) for fluorescent imaging analyses (Axiovert-200M, Carl Zeiss, Gôttingen, Germany) or a flow cytometric analysis (Beckton Dickinson, Franklin Lakes, NJ, USA). Median values of the FITC fluorescent intensities were determined using an FL-1 channel (488/530Ex/Em nm). Five thousand live cells were analyzed per sample.

R6/2 mice = assay: In vivo 3D MRI imaging of brain atrophy in R6/2 mice; conditions: 0.05 mg/ml in drinking water, five weeks
Experimental: Supplementary file pone.0020934.s005.tif: Figure S5 Effect of T1-11 on the shorten lifespan and enlarged ventricle of R6/2 mice. Animals were given the vehicle (1% DMSO; CON) or T1-11 (0.05 mg/ml)-containing drinking water from the age of 7 weeks. (A) Survival was assessed. Specific comparison to R6/2 mice treated with the vehicle (p = 0.306; Mantel-Cox test). (B) Five weeks after T1-11 treatment, 3D-lMRI was performed to determine the ventricle-to-brain ratio of the indicated animals as described. * p<0.05. (TIF) Click here for additional data file.

[7] = HEK293 membranes, 3H-CGS21680 50 nM

T1 sequence (P29274 whole entry): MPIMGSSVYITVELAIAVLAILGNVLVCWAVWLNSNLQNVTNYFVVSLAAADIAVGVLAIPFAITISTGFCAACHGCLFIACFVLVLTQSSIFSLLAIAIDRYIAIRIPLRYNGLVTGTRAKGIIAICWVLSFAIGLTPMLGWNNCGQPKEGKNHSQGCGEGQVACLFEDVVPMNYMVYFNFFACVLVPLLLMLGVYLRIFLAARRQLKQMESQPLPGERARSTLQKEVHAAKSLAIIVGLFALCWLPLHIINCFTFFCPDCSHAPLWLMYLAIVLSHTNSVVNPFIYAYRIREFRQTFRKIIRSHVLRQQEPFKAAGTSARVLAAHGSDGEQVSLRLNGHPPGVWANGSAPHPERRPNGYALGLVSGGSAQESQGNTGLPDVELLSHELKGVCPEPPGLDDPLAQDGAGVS

OC[C@H]1O[C@@H](n2cnc3c(NCc4ccc(O)cc4)ncnc32)[C@H](O)[C@@H]1O [T1-11, N ^6-(4-hydroxybenzyl)adenine riboside]
inhibition at 10 µM (A2A adenosine receptor; 10 μM T1-11, n 2): 58%
IC50 (A2A adenosine receptor; [7]): 4.66 µM
Ki (A2A adenosine receptor; [7]): 2.62 µM
inhibition at 10 µM (Adrenergic α 2A): -8%
% Inhibition (Bombesin, Non-Selective): 6%
% Inhibition [1]: -4%
inhibition at 10 µM (Cannabinoid CB1): -7%
inhibition at 10 µM [2]: -3%
inhibition at 10 µM (Dopamine D4.7): 3%
inhibition at 10 µM (Estrogen ERα): 32%
% Inhibition [3]: 6%
% Inhibition (GABAA, Non-Selective): 5%
inhibition at 10 µM (Glutamate, NMDA, Glycine): 7%
inhibition at 10 µM (Histamine H3): 4%
inhibition at 10 µM (Interleukin IL-2): 0%
inhibition at 10 µM (Interleukin IL-6): -3%
inhibition at 10 µM (Melanocortin MC3): 3%
inhibition at 10 µM (Neuropeptide Y Y1): 6%
inhibition at 10 µM (Opiate κ (OP2, KOP)): 6%
inhibition at 10 µM (Phosphodiesterase PDE3): 0%
% Inhibition (Phosphodiesterase PDE6): 21%
% Inhibition [4]: -4%
inhibition at 10 µM (Potassium Channel [KATP]): 6%
inhibition at 10 µM (Prostanoid DP): 17%
inhibition at 10 µM [5]: 1%
% Inhibition (Rolipram): -6%
% Inhibition [6]: 15%
inhibition at 10 µM (Sigma σ2): -3%
% Inhibition (Sodium Channel, Site 2): 3%
inhibition at 10 µM (Somatostatin sst5): 4%
Apoptosis (annexin V-FITC) (PC12 cells): rescued serum-deprived PC12 cells from apoptosis
Brain atrophy (3D MRI) (R6/2 mice): slightly ameliorated the brain atrophy of R6/2 mice but the improvement did not reach statistic significance
